Results as given in patent publication US11364237B2, “Composition for inhibiting cancer metastasis and treating cancer” (ONCOCROSS CO., LTD., priority 2017, dated 2022).

Key:
[1] = system: colorectal cancer cell lines CT26, HCT116 and SW480; test: MTT cell survival rate, colorectal cancer cell lines; format: cell-based, mouse (CT26), human (HCT116; details: single treatment, 24, 48 and 72 hours; for concentration at which toxicity was shown (cell survival rate): FIGS. 1 to 3
Experimental: In order to confirm the effect of chlorphenesin (named as OC-201), chloroquine (named as OC-202) and chloropyrazine (named as OC-203) alone on the survival rate of colorectal cancer cells, cell survival rate was evaluated for the colorectal cancer cell lines CT26, HCT116 and SW480 cell lines by MTT assay (Promega, Ltd.) according to the manufacturer's protocol. […] The pre-treated cell lines were incubated with 5 mg/mL MTT for 4 hours. Thereafter, the medium was removed, and 150 μL of the solubilization solution and the stop solution were added, followed by incubation at 30° C. for 4 hours. The absorbance of the reaction solution was measured at 570 nm. The cell survival rate was calculated using the following Equation 1. Cell survival rate=absorbance of experimental group (at 570 nm)/absorbance of control (at 570 nm)×100(%) [Equation 1]
(§1) The pre-treated cell lines were incubated with 5 mg/mL MTT for 4 hours. Thereafter, the medium was removed, and 150 μL of the solubilization solution and the stop solution were added, followed by incubation at 30° C. for 4 hours. The absorbance of the reaction solution was measured at 570 nm. The cell survival rate was calculated using the above Equation 1.

[2] = system: pancreatic cancer cell lines Aspc-1, MIAPaCA2 and Panc-1; test: MTT cell survival rate, pancreatic cancer cell lines; format: cell-based, human; details: for cytotoxicity (cell survival rate), single administration: up to 1 mM chlorphenesin, up to 100 μM chloropyrazine, 24, 48, 72 hours, FIGS. 30 and 32
Experimental: as §1, with “mg/ml” for “mg/mL”, “equation 1 as described above.” for “above Equation 1.”
as §1, with “mg/ml” for “mg/mL”, “equation” for “Equation”

SNU 308 cell line = test: MTT cell survival rate; format: cell-based, human; details: after 48 hours, FIG. 47
Experimental: as §1, with “mg/ml” for “mg/mL”, “equation 1 as described above.” for “the above Equation 1.”

SNU1079 = test: MTT cell survival rate; format: cell-based, human; details: FIG. 47
Experimental: as §1, with “mg/ml” for “mg/mL”, “equation 1 as described above.” for “the above Equation 1.”

SW480 cell line = test: Transwell migration assay, chlorphenesin alone; format: cell-based, human; details: 18 hours, laminin in lower well, FIGS. 6 and 7
HCT116 cell line = test: Transwell migration assay, chlorphenesin alone; format: cell-based, human; details: 18 hours, FIGS. 8 and 9
CT26 cell line = test: Transwell migration assay, chlorphenesin alone; format: cell-based, mouse; details: 18 hours, FIGS. 10 and 11
[3] = system: colorectal cancer cell lines HCT116; test: Soft agar colony formation assay (anchorage independent growth), chlorphenesin alone; format: cell-based, human; details: 3 weeks, FIG. 27
[4] = system: biliary tract cancer cell lines SNU1079 and SNU308; details: human, 48 h
Experimental: as §1, with “mg/ml” for “mg/mL”, “equation 1 as described above.” for “the above Equation 1.”
as §1, with “mg/ml” for “mg/mL”, “equation” for “Equation”

[5] = system: colorectal cancer cells CT26 and HCT116; test: Transwell migration assay at low concentration; format: cell-based, mouse (CT26), human (HCT116); details: 1 μM chlorphenesin; 8 hours; FIG. 58
[6] = system: colorectal cancer cell line CT26; test: Wound healing assay at low concentration; format: cell-based, mouse; details: 1 μM chlorphenesin; 24 hours; FIG. 59
Experimental: Wound healing analysis was performed to measure cell motility. […] After incubation of the cells for 24 hours in the presence or absence of chlorphenesin (1 μM), a photograph of the dyed monolayers was taken with a microscope.

CT26 cell-induced tumors = test: CT26 tumor animal model, tumor growth and lung metastasis; format: in vivo, Balb/c mice
Experimental: Specifically, 60 Balb/c mice were subcutaneously inoculated once with 100 μL of CT26 cell suspension (1×10^7 cells/mL) to induce tumors, thereby producing a xenograft animal model. […] For the chlorphenesin single administration, 10 animal models were abdominally administered with 10 mg/kg chlorphenesin (3 times a week) for 5 weeks or 14 animal models were orally administered with 20 mg/kg chlorphenesin (5 times a week) for 5 weeks. 14 animal models were administered with the same dose of PBS as chlorphenesin as a negative control. […] The body weight of the animal models was measured once a week, and the tumor size was measured once a week from the day of drug administration. After 6 weeks, animal models were anesthetized with ether, and tumors and lungs were collected.

[7] = system: colorectal cancer cell line HCT116; test: Wound healing assay; details: 0, 8 and 24 hours, FIGS. 21 to 23
[8] = system: biliary tract cancer cell line SNU1079; test: Transwell migration assay with Combination Index; details: 18 hours, FIGS. 51 and 52

| Structure (SMILES) | concentration at which not toxic (cell survival rate) ([1]; FIG. 3) | cytotoxicity (cell survival rate), single administration [2] | concentration at which toxicity was shown (cell survival rate) [1] | concentration at which cytotoxicity was shown ([2]; single administration, FIG. 31) | concentration at which cytotoxicity was shown (SNU 308 cell line) | concentration at which cytotoxicity was shown (SNU1079; after 48 hours) | concentration at which cytotoxicity was shown (SNU1079; for 24 hours) | concentration at which cell migration was significantly reduced (SW480 cell line) | concentration at which cell migration was specially decreased (HCT116 cell line) | concentration at which cell migration was specially decreased (CT26 cell line) | concentration at which colony forming ability was decreased [3] | concentration at which apparent cytotoxicity was shown [4] | invasion ability and migration ability of the cells compared to the control [5] | mobility of the CT26 cell line (wound healing) [6] | tumor size compared with the control groups (CT26 cell-induced tumors; chlorphenesin 20 mg/kg orally, 5 times a week for 5 weeks, FIG. 61) | cancer metastasis to lungs compared to control groups (CT26 cell-induced tumors; chlorphenesin-treated group, 5 weeks dosing, lungs collected after 6 weeks, FIG. 60) | concentration at which migration was decreased (wound healing) [7] | concentration at which cell migration was decreased [8] | concentration at which the decrease of cell migration was remarkable [8] |
| --- | --- | --- | --- | --- | --- | --- | --- | --- | --- | --- | --- | --- | --- | --- | --- | --- | --- | --- | --- |
| Clc1cnccn1 [chloropyrazine] | ≤ 100 µM | did not show cytotoxicity even at high doses |  |  |  |  |  |  |  |  |  |  |  |  |  |  |  |  |  |
| CCN(CC)CCCC(C)Nc1ccnc2cc(Cl)ccc12 (stereo not drawn) [chloroquine] |  |  | more than 10 μM | ≥ 50 µM | ≥ 50 µM | ≥ 25 µM | ≥ 50 µM |  |  |  |  |  |  |  |  |  |  |  |  |
| OCC(O)COc1ccc(Cl)cc1 (stereo not drawn) [chlorphenesin] |  | did not show cytotoxicity even at high doses | more than 500 μM |  |  |  |  | ≥ 25 µM | ≥ 250 µM | ≥ 250 µM | ≥ 250 µM | ≥ 1 mM | significantly reduced | reduced | reduction in the tumor size | no cancer metastasis to lungs | ≥ 25 µM | ≥ 25 µM | ≥ 100 µM |
